Drawing on ChEMBL document CHEMBL1146218, “Highly brominated mono- and bis-phenols from the marine red alga Symphyocladia latiuscula with radical-scavenging activity” (J Nat Prod, 2007), this text covers IC50 for ten compounds.

As a reminder, the IC50 is the midpoint of a concentration-inhibition curve.

The test in a line: DPPH radical scavenging activity. The test is classed as functional. On the technique in general: Loss of DPPH colour is used to gauge radical scavenging.
`Oc1c(O)c(Br)c(COCc2c(Br)c(O)c(O)c(Br)c2Br)c(Br)c1Br`: the IC50 was found to be 8.5 µM.
`Cc1c(Br)c(O)c(O)c(Br)c1Br` came in with an IC50 of 14 µM. This IC50 lies about 1.6-fold higher than the previous one.
The same measure for `COCc1c(Br)c(O)c(O)c(Br)c1Br`: 15.5 µM; for `O=C1CCCN1Cc1c(Br)c(O)c(O)c(Br)c1Br`: 18.5 µM; for `COCc1c(Br)c(O)c(O)c(Br)c1Cc1c(Br)c(O)c(O)c(Br)c1Br`: 10.5 µM.
In the case of `CS(=O)(=O)Cc1c(Br)c(O)c(O)c(Br)c1Br` it was 24 µM; in that of `O=Cc1c(Br)c(O)c(O)c(Br)c1Br`, 24.7 µM.
The same measure for `Oc1c(O)c(Br)c(Cc2c(Br)c(O)c(O)c(Br)c2Br)c(Br)c1Br`: 8.1 µM; for `Oc1c(O)c(Br)c(CCc2c(Br)c(O)c(O)c(Br)c2Br)c(Br)c1Br`: 10.2 µM.
Regarding `Cc1cc(C(C)(C)C)c(O)c(C(C)(C)C)c1` [BUTYLATED HYDROXYTOLUENE], the IC50 was found to be 81.8 µM.
